The values below come from patent US20240002786A1, “SHRINKABLE HYDROGELS” (THE BRIGHAM AND WOMEN'S HOSPITAL, INC., priority 2020, published 2024).

The assay can be described thus: Hydrogel disc shrinking capacity with polycation solutions. The procedure:
Hydrogels were made from gelMA A or B, fish GelMA, and/or HAMA and were prepared at different concentrations. GelMA formulations were dissolved whilst stirring in MilliQ water at 37° C. for 2 h. HAMA formulations were dissolved into MilliQ water overnight under agitation. Both HAMA and gelMA solutions were supplemented with 0.1 wt % Irgacure 2959 (Sigma-Aldrich) prior to UV crosslinking. The prepared polymer solutions were cast in circular PDMS molds (diameter: 4.5 cm) and subsequently UV-irradiated (methacrylate conversion was determined to be >95%). Subsequently, a biopsy punch (Integra Miltex, various diameters) was used to cut cylindrical hydrogels of 2 mm in height.
Shrinking agents were dissolved overnight in either phosphate-buffered saline (170 mM of ionic strength, pH 7.4) or diluted or NaCl-supplemented phosphate buffer (17-700 mM ionic strengths, pH 7.4) for up to 2.0 wt %. Cut hydrogels were initially measured using Vernier calipers (standard error=30 μm) to determine their volumes and subsequently incubated in the various shrinking agent solutions (volume: 2 mL, n=3 for every condition). Unless stated otherwise, incubation was done at room temperature. Hydrogel diameter and height were monitored either over time to determine hydrogel shrinking kinetics or after full dehydration had occurred to determine maximum shrinking capacity (typically after 12 h).

With lysozyme, the hydrogel shrinking result reads like this: (isotonic conditions (170 mM of ionic strength and pH 7.4)) “did not shrink at all”; (reduced ionic strength (85 mM, pH 7.4)) “hydrogel shrinking was observed”.
